Laboratory results: ChEMBL document CHEMBL2429768, “Eco-friendly synthesis and antimicrobial activities of substituted-5-(1H-indol-3-yl)methylene)-2,2-dimethyl-1,3-dioxane-4,6-dione derivatives” (2013)
In brackets after ≈: the same amount, converted by molar mass.

Assays:
Type in all cases: functional
[1] = tested on: Rhizoctonia solani; test: Antifungal activity against Rhizoctonia solani at 100 ug/ml after 72 hrs by agar well diffusion method; settings: read-out: DIZ
[2] = tested on: Staphylococcus aureus; test: Antibacterial activity against Staphylococcus aureus ATCC 6538 at 50 ug/ml after 24 hrs by agar well diffusion method; settings: ATCC 6538, 24 h, read-out: DIZ
[3] = tested on: Staphylococcus aureus; test: Antibacterial activity against Staphylococcus aureus ATCC 6538 at 200 ug/ml after 24 hrs by agar well diffusion method; settings: ATCC 6538, 24 h, read-out: DIZ
[4] = tested on: Escherichia coli; test: Antibacterial activity against Escherichia coli ATCC 8739 at 200 ug/ml after 24 hrs by agar well diffusion method; settings: ATCC 8739, 24 h, read-out: DIZ
[5] = tested on: Klebsiella pneumoniae; test: Antibacterial activity against Klebsiella pneumoniae at 100 ug/ml after 24 hrs by agar well diffusion method; settings: read-out: DIZ
[6] = tested on: Bacillus subtilis; test: Antibacterial activity against Bacillus subtilis at 500 ug/ml after 24 hrs by agar well diffusion method; settings: read-out: DIZ
[7] = tested on: Staphylococcus aureus; test: Antibacterial activity against Staphylococcus aureus ATCC 6538 at 300 ug/ml after 24 hrs by agar well diffusion method; settings: ATCC 6538, 24 h, read-out: DIZ
[8] = tested on: Rhizoctonia solani; test: Antifungal activity against Rhizoctonia solani after 72 hrs by agar well diffusion method
[9] = tested on: Aspergillus flavus; test: Antifungal activity against Aspergillus flavus at 200 ug/ml after 72 hrs by agar well diffusion method; settings: read-out: DIZ
[10] = tested on: Bacillus subtilis; test: Antibacterial activity against Bacillus subtilis at 50 ug/ml after 24 hrs by agar well diffusion method; settings: read-out: DIZ
[11] = tested on: Staphylococcus aureus; test: Antibacterial activity against Staphylococcus aureus ATCC 6538 at 500 ug/ml after 24 hrs by agar well diffusion method; settings: ATCC 6538, 24 h, read-out: DIZ
[12] = tested on: Aspergillus niger; test: Antifungal activity against Aspergillus niger after 72 hrs by agar well diffusion method
[13] = tested on: Rhizoctonia solani; test: Antifungal activity against Rhizoctonia solani at 500 ug/ml after 72 hrs by agar well diffusion method; settings: read-out: DIZ
[14] = tested on: Aspergillus flavus; test: Antifungal activity against Aspergillus flavus at 500 ug/ml after 72 hrs by agar well diffusion method; settings: read-out: DIZ
[15] = tested on: Bacillus subtilis; test: Antibacterial activity against Bacillus subtilis at 100 ug/ml after 24 hrs by agar well diffusion method; settings: read-out: DIZ
[16] = tested on: Fusarium oxysporum; test: Antifungal activity against Fusarium oxysporum after 72 hrs by agar well diffusion method
[17] = tested on: Fusarium oxysporum; test: Antifungal activity against Fusarium oxysporum at 100 ug/ml after 72 hrs by agar well diffusion method; settings: read-out: DIZ
[18] = tested on: Escherichia coli; test: Antibacterial activity against Escherichia coli ATCC 8739 at 300 ug/ml after 24 hrs by agar well diffusion method; settings: ATCC 8739, 24 h, read-out: DIZ
[19] = tested on: Aspergillus flavus; test: Antifungal activity against Aspergillus flavus at 50 ug/ml after 72 hrs by agar well diffusion method; settings: read-out: DIZ
[20] = tested on: Aspergillus niger; test: Antifungal activity against Aspergillus niger at 300 ug/ml after 72 hrs by agar well diffusion method; settings: read-out: DIZ
[21] = tested on: Klebsiella pneumoniae; test: Antibacterial activity against Klebsiella pneumoniae after 24 hrs by agar well diffusion method
[22] = tested on: Escherichia coli; test: Antibacterial activity against Escherichia coli ATCC 8739 at 50 ug/ml after 24 hrs by agar well diffusion method; settings: ATCC 8739, 24 h, read-out: DIZ
[23] = tested on: Escherichia coli; test: Antibacterial activity against Escherichia coli ATCC 8739 at 100 ug/ml after 24 hrs by agar well diffusion method; settings: ATCC 8739, 24 h, read-out: DIZ
[24] = tested on: Bacillus subtilis; test: Antibacterial activity against Bacillus subtilis at 300 ug/ml after 24 hrs by agar well diffusion method; settings: read-out: DIZ
[25] = tested on: Fusarium oxysporum; test: Antifungal activity against Fusarium oxysporum at 200 ug/ml after 72 hrs by agar well diffusion method; settings: read-out: DIZ
[26] = tested on: Aspergillus niger; test: Antifungal activity against Aspergillus niger at 100 ug/ml after 72 hrs by agar well diffusion method; settings: read-out: DIZ
[27] = tested on: Aspergillus niger; test: Antifungal activity against Aspergillus niger at 50 ug/ml after 72 hrs by agar well diffusion method; settings: read-out: DIZ
[28] = tested on: Fusarium oxysporum; test: Antifungal activity against Fusarium oxysporum at 300 ug/ml after 72 hrs by agar well diffusion method; settings: read-out: DIZ
[29] = tested on: Fusarium oxysporum; test: Antifungal activity against Fusarium oxysporum at 50 ug/ml after 72 hrs by agar well diffusion method; settings: read-out: DIZ
[30] = tested on: Klebsiella pneumoniae; test: Antibacterial activity against Klebsiella pneumoniae at 50 ug/ml after 24 hrs by agar well diffusion method; settings: read-out: DIZ
[31] = tested on: Aspergillus niger; test: Antifungal activity against Aspergillus niger at 200 ug/ml after 72 hrs by agar well diffusion method; settings: read-out: DIZ
[32] = tested on: Rhizoctonia solani; test: Antifungal activity against Rhizoctonia solani at 300 ug/ml after 72 hrs by agar well diffusion method; settings: read-out: DIZ
[33] = tested on: Aspergillus niger; test: Antifungal activity against Aspergillus niger at 500 ug/ml after 72 hrs by agar well diffusion method; settings: read-out: DIZ
[34] = tested on: Aspergillus flavus; test: Antifungal activity against Aspergillus flavus after 72 hrs by agar well diffusion method
[35] = tested on: Bacillus subtilis; test: Antibacterial activity against Bacillus subtilis after 24 hrs by agar well diffusion method
[36] = tested on: Aspergillus flavus; test: Antifungal activity against Aspergillus flavus at 300 ug/ml after 72 hrs by agar well diffusion method; settings: read-out: DIZ
[37] = tested on: Klebsiella pneumoniae; test: Antibacterial activity against Klebsiella pneumoniae at 300 ug/ml after 24 hrs by agar well diffusion method; settings: read-out: DIZ
[38] = tested on: Staphylococcus aureus; test: Antibacterial activity against Staphylococcus aureus ATCC 6538 at 100 ug/ml after 24 hrs by agar well diffusion method; settings: ATCC 6538, 24 h, read-out: DIZ
[39] = tested on: Rhizoctonia solani; test: Antifungal activity against Rhizoctonia solani at 200 ug/ml after 72 hrs by agar well diffusion method; settings: read-out: DIZ
[40] = tested on: Klebsiella pneumoniae; test: Antibacterial activity against Klebsiella pneumoniae at 200 ug/ml after 24 hrs by agar well diffusion method; settings: read-out: DIZ
[41] = tested on: Klebsiella pneumoniae; test: Antibacterial activity against Klebsiella pneumoniae at 500 ug/ml after 24 hrs by agar well diffusion method; settings: read-out: DIZ
[42] = tested on: Bacillus subtilis; test: Antibacterial activity against Bacillus subtilis at 200 ug/ml after 24 hrs by agar well diffusion method; settings: read-out: DIZ
[43] = tested on: Escherichia coli; test: Antibacterial activity against Escherichia coli ATCC 8739 after 24 hrs by agar well diffusion method; settings: ATCC 8739, 24 h
[44] = tested on: Aspergillus flavus; test: Antifungal activity against Aspergillus flavus at 100 ug/ml after 72 hrs by agar well diffusion method; settings: read-out: DIZ
[45] = tested on: Staphylococcus aureus; test: Antibacterial activity against Staphylococcus aureus ATCC 6538 after 24 hrs by agar well diffusion method; settings: ATCC 6538, 24 h
[46] = tested on: Rhizoctonia solani; test: Antifungal activity against Rhizoctonia solani at 50 ug/ml after 72 hrs by agar well diffusion method; settings: read-out: DIZ
[47] = tested on: Fusarium oxysporum; test: Antifungal activity against Fusarium oxysporum at 500 ug/ml after 72 hrs by agar well diffusion method; settings: read-out: DIZ
[48] = tested on: Escherichia coli; test: Antibacterial activity against Escherichia coli ATCC 8739 at 500 ug/ml after 24 hrs by agar well diffusion method; settings: ATCC 8739, 24 h, read-out: DIZ

CCn1cc(C=C2C(=O)OC(C)(C)OC2=O)c2cc(Br)ccc21
zone of inhibition at 100 µg/mL [1]: 12 mm
zone of inhibition at 50 µg/mL [2]: 5 mm
zone of inhibition at 200 µg/mL [3]: 11 mm
zone of inhibition at 200 µg/mL [4]: 13 mm
zone of inhibition at 100 µg/mL [5]: 13.4 mm
zone of inhibition at 500 µg/mL [6]: 23 mm
zone of inhibition at 300 µg/mL [7]: 15 mm
MIC [8]: 35 µg/mL (≈ 92.5 µM)
zone of inhibition at 200 µg/mL [9]: 12 mm
zone of inhibition at 50 µg/mL [10]: 5 mm
zone of inhibition at 500 µg/mL [11]: 23 mm
MIC [12]: 40 µg/mL (≈ 106 µM)
zone of inhibition at 500 µg/mL [13]: 29 mm
zone of inhibition at 500 µg/mL [14]: 23 mm
zone of inhibition at 100 µg/mL [15]: 9.5 mm
MIC [16]: 35 µg/mL (≈ 92.5 µM)
zone of inhibition at 100 µg/mL [17]: 12 mm
zone of inhibition at 300 µg/mL [18]: 17 mm
zone of inhibition at 50 µg/mL [19]: 4 mm
zone of inhibition at 300 µg/mL [20]: 18 mm
MIC [21]: 15 µg/mL (≈ 39.7 µM)
zone of inhibition at 50 µg/mL [22]: 6 mm
zone of inhibition at 100 µg/mL [23]: 10 mm
zone of inhibition at 300 µg/mL [24]: 15 mm
zone of inhibition at 200 µg/mL [25]: 16 mm
zone of inhibition at 100 µg/mL [26]: 10 mm
zone of inhibition at 50 µg/mL [27]: 6 mm
zone of inhibition at 300 µg/mL [28]: 21 mm
zone of inhibition at 50 µg/mL [29]: 7 mm
zone of inhibition at 50 µg/mL [30]: 8.4 mm
zone of inhibition at 200 µg/mL [31]: 14 mm
zone of inhibition at 300 µg/mL [32]: 21 mm
zone of inhibition at 500 µg/mL [33]: 25 mm
MIC [34]: 40 µg/mL (≈ 106 µM)
MIC [35]: 30 µg/mL (≈ 79.3 µM)
zone of inhibition at 300 µg/mL [36]: 15 mm
zone of inhibition at 300 µg/mL [37]: 21 mm
zone of inhibition at 100 µg/mL [38]: 9.5 mm
zone of inhibition at 200 µg/mL [39]: 16 mm
zone of inhibition at 200 µg/mL [40]: 14 mm
zone of inhibition at 500 µg/mL [41]: 30 mm
zone of inhibition at 200 µg/mL [42]: 11 mm
MIC [43]: 15 µg/mL (≈ 39.7 µM)
zone of inhibition at 100 µg/mL [44]: 9 mm
MIC [45]: 25 µg/mL (≈ 66.1 µM)
zone of inhibition at 50 µg/mL [46]: 7 mm
zone of inhibition at 500 µg/mL [47]: 29 mm
zone of inhibition at 500 µg/mL [48]: 25 mm
